Literature values in patent US20250228797A1, “SYNERGIC AND STABLE PHARMACEUTICAL COMPOSITION OF AN NSAID AND AN OPIOID ANALGESIC FOR PAIN AND INFLAMMATION” (LABORATORIOS SILANES, S.A. DE C.V., priority 2024, published 2025).

Key:
[1] = tested on: moderate to severe post-operatory pain; settings: intravenous or intramuscular
[2] = in vivo

For `COc1cccc([C@@]2(O)CCCC[C@@H]2CN(C)C)c1` [tramadol, (1R,2R)-2-[(dimethylamino)methyl]-1-(3-methoxyphenyl)cyclohexan-1-ol], the “Analgesic potency relative to nalbuphine” value [1] is listed as “one-fifth”, the “Analgesic potency relative to pethidine (meperidine)” value [1] is listed as “equivalent” and the “Incidence of serious adverse reactions” value [2] is listed as “less than 1%”.
